# Counter-ions that a name gives are not always drawn.
# Assays:
# [1] = test system: bacterial strains that express KPC β-lactamases; assay: Synergy MIC / standard BLI potentiation MIC assay, strains expressing KPC β-lactamases; format: cell-based; details: for at least one KPC strain and/or a better spectrum of activity against KPC strains than Avibactam; in the presence of a β-lactam
# Procedure: (§1) Unless otherwise indicated, the activity of the BLI compounds can be described by the MIC value obtained from a Synergy MIC assay or a BLI potentiation assay (e.g as described herein), both of which are run in the presence of a β-lactam.
# (§2) The experimental protocol was performed according to Clinical and Laboratory Standards Institute (CLSI) guidelines with modifications as described below (CLSI guidelines can be derived from the CLSI document M07-A9 published in January 2012: “Methods for Dilution Antimicrobial Susceptibility Tests for Bacteria That Grow Aerobically; Approved Standard-Ninth Edition”).
# (§3) To prepare for MIC testing, frozen glycerol stocks of clinical isolates (Klebsiella pneumoniae, Eschericia coli, Enterobacter spp, Citrobacter spp, or Pseudomonas aeruginosa) were used to streak for isolated colonies on rich, non-selective, tryptic soy agar containing 5% sheep's blood (TSAB). Frozen glycerol stocks of laboratory engineered, isogenic E. coli strains, which contain cloned β-lactamase expressing plasmids were used to streak for isolated colonies on rich, selective LB agar supplemented with 25 μg/mL tetracycline to maintain the plasmid. All strains were incubated at 37° C. for 18-24 hrs.
# (§4) On the day of testing, primary cultures were started by scraping off 5-10 colonies from the TSAB plates containing clinical strains or the tetracycline supplemented LB plates containing engineered strains. The clinical strain material was suspended in ˜5 mL of cation adjusted Mueller Hinton Broth (CAMHB) in 14 mL culture tubes. The engineered strain material was suspended in CAMHB (supplemented with 25 μg/mL tetracycline) in 14 mL culture tubes. All strains were incubated at 37° C. with aeration (200 rpm) for ˜2 hrs until the optical density at 600 nm (OD600) was ≧0.1.
# (§5) The two compound components of the assay were each diluted in CAMHB and added to the 96-well broth microdilution assay plates. 50 μL of the β-lactam was added to each well of the assay plate in 2-fold dilutions with final concentrations ranging from 128 to 0.13 μg/mL. 25 μL of the BLI compound was added to all wells in the broth microdilution plates at a final concentration of 4 μg/mL. Inoculum cultures were prepared by standardizing the primary cultures to OD600=0.1 and then adding 20 μL of the adjusted primary culture per 1 mL CAMHB for clinical strains or CAMHB (supplemented with tetracycline at 100 μg/mL) for engineered strains, so that the final inoculum density was ˜10^5 colony forming units per milliliter. Diluted inoculum cultures were used to inoculate 25 μl, per well in 96-well broth microdilution assay plates. The final volume of each well was 100 μL and contained a β-lactam at different concentrations, a BLIcompound at 4 μg/mL concentration, the bacterial culture at an OD600 of approximately 0.001 and when necessary tetracycline at 25 μg/mL.
# (§6) Plates were incubated for 18-20 hours at 37° C. with aeration (200 rpm). Following incubation, growth was confirmed visually placing plates over a viewing apparatus (stand with a mirror underneath) and then OD600 was measured using a SpectraMax 340PC384 plate reader (Molecular Devices, Sunnyvale, Calif.). Growth was defined as turbidity that could be detected with the naked eye or achieving minimum OD600 of 0.1. MIC values were defined as the lowest concentration producing no visible turbidity.
# (§7) The synergy MIC (sMIC) assay determines the concentration of the BLI required to potentiate the activity of a fixed concentration of a β-lactam antibiotic against β-lactamase producing bacterial strains. The experimental protocol was performed according to Clinical and Laboratory Standards Institute (CLSI) guidelines with modifications as described below (CLSI guidelines can be derived from the CLSI document M07-A9 published in January 2012: “Methods for Dilution Antimicrobial Susceptibility Tests for Bacteria That Grow Aerobically; Approved Standard-Ninth Edition”). […]
# [2] = test system: bacterial strains that express the class D cephalosporinase OXA-15; assay: Synergy MIC / standard BLI potentiation MIC assay, strains expressing OXA-15;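 further: more active means a lower MIC or sMIC than Avibactam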; format: cell-based, E. coli; details: in the presence of a β-lactam; comparator Avibactam (CCC)
# Procedure: as §1, §2, §3, §4, §5, §6, §7
SMILES,activity against bacterial strains that express KPC β-lactamase compared with Avibactam [1],activity against bacterial strains that express OXA-15 β-lactamase compared with Avibactam [2]
"O=C1N2C[C@@H](CC[C@H]2c2nnco2)N1OS(=O)(=O)O [Compound 701, (2S,5R)-2-(1,3,4-oxadiazol-2-yl)-7-oxo-1,6-diazabicyclo[3.2.1]octan-6-yl hydrogen sulfate]",more active than Avibactam,more active than Avibactam
"NCc1nnc([C@@H]2CC[C@@H]3CN2C(=O)N3OS(=O)(=O)O)o1 [Compound 702, (2S,5R)-2-(5-(aminomethyl)-1,3,4-oxadiazol-2-yl)-7-oxo-1,6-diazabicyclo[3.2.1]octan-6-yl hydrogen sulfate]",more active than Avibactam,more active than Avibactam
"NCCc1nnc([C@@H]2CC[C@@H]3CN2C(=O)N3OS(=O)(=O)O)o1 [Compound 703, (2S,5R)-2-(5-(2-aminoethyl)-1,3,4-oxadiazol-2-yl)-7-oxo-1,6-diazabicyclo[3.2.1]octan-6-yl hydrogen sulfate]",more active than Avibactam,more active than Avibactam
"N=C(N)NCCc1nnc([C@@H]2CC[C@@H]3CN2C(=O)N3OS(=O)(=O)O)o1 [Compound 705, (2S,5R)-2-(5-(2-guanidinoethyl)-1,3,4-oxadiazol-2-yl)-7-oxo-1,6-diazabicyclo[3.2.1]octan-6-yl hydrogen sulfate]",more active than Avibactam,more active than Avibactam
"NC(=O)c1nnc([C@@H]2CC[C@@H]3CN2C(=O)N3OS(=O)(=O)O)o1 [Compound 706, (2S,5R)-2-(5-carbamoyl-1,3,4-oxadiazol-2-yl)-7-oxo-1,6-diaza-bicyclo[3.2.1]octan-6-yl hydrogen sulfate]",more active than Avibactam,more active than Avibactam
"O=C1N2C[C@@H](CC[C@H]2c2nnc(C3CNC3)o2)N1OS(=O)(=O)O [Compound 708, (2S,5R)-2-(5-(azetidin-3-yl)-1,3,4-oxadiazol-2-yl)-7-oxo-1,6-diazabicyclo[3.2.1]octan-6-yl hydrogen sulfate]",more active than Avibactam,more active than Avibactam
"N=C(N)N1CC(c2nnc([C@@H]3CC[C@@H]4CN3C(=O)N4OS(=O)(=O)O)o2)C1 [Compound 709, (2S,5R)-2-(5-(1-carbamimidoylazetidin-3-yl)-1,3,4-oxadiazol-2-yl)-7-oxo-1,6-diazabicyclo[3.2.1]octan-6-yl hydrogen sulfate]",more active than Avibactam,more active than Avibactam
"O=C1N2C[C@@H](CC[C@H]2c2nnc(C3CCNC3)o2)N1OS(=O)(=O)O (stereo partly drawn) [Compound 710, (2S,5R)-7-oxo-2-(5-(pyrrolidin-3-yl)-1,3,4-oxadiazol-2-yl)-1,6-diazabicyclo[3.2.1]octan-6-yl hydrogen sulfate]",more active than Avibactam,more active than Avibactam
"O=C1N2C[C@@H](CC[C@H]2c2nnc(C3CCNCC3)o2)N1OS(=O)(=O)O [Compound 711, (2S,5R)-7-oxo-2-(5-(piperidin-4-yl)-1,3,4-oxadiazol-2-yl)-1,6-diazabicyclo[3.2.1]octan-6-yl hydrogen sulfate]",more active than Avibactam,more active than Avibactam
"NCCCc1nnc([C@@H]2CC[C@@H]3CN2C(=O)N3OS(=O)(=O)O)o1 [Compound 720, (2S,5R)-2-(5-(3-aminopropyl)-1,3,4-oxadiazol-2-yl)-7-oxo-1,6-diazabicyclo[3.2.1]octan-6-yl hydrogen sulfate]",more active than Avibactam,more active than Avibactam
"N=C(N)NCc1nnc([C@@H]2CC[C@@H]3CN2C(=O)N3OS(=O)(=O)O)s1 [Compound 721, (2S,5R)-2-(5-(guanidinomethyl)-1,3,4-thiadiazol-2-yl)-7-oxo-1,6-diazabicyclo[3.2.1]octan-6-yl hydrogen sulfate]",more active than Avibactam,more active than Avibactam
"CNCCc1nnc([C@@H]2CC[C@@H]3CN2C(=O)N3OS(=O)(=O)O)o1 [Compound 722, (2S,5R)-2-(5-(2-(methylamino)ethyl)-1,3,4-oxadiazol-2-yl)-7-oxo-1,6-diazabicyclo[3.2.1]octan-6-yl hydrogen sulfate]",more active than Avibactam,more active than Avibactam
"N=C(N)NCC1(c2nnc([C@@H]3CC[C@@H]4CN3C(=O)N4OS(=O)(=O)O)o2)CC1 [Compound 723, (2S,5R)-2-(5-(1-(guanidinomethyl)cyclopropyl)-1,3,4-oxadiazol-2-yl)-7-oxo-1,6-diazabicyclo[3.2.1]octan-6-yl hydrogen sulfate]",more active than Avibactam,more active than Avibactam
"NC1(Cc2nnc([C@@H]3CC[C@@H]4CN3C(=O)N4OS(=O)(=O)O)o2)CC1 [Compound 724, (2S,5R)-2-(5-((1-aminocyclopropyl)methyl)-1,3,4-oxadiazol-2-yl)-7-oxo-1,6-diazabicyclo[3.2.1]octan-6-yl hydrogen sulfate]",more active than Avibactam,more active than Avibactam
"O=C1N2C[C@@H](CC[C@H]2c2nnc(CNC3CNC3)o2)N1OS(=O)(=O)O [Compound 726, (2S,5R)-2-(5-((azetidin-3-ylamino)methyl)-1,3,4-oxadiazol-2-yl)-7-oxo-1,6-diazabicyclo[3.2.1]octan-6-yl hydrogen sulfate]",more active than Avibactam,more active than Avibactam
"NC1CCN(CCc2nnc([C@@H]3CC[C@@H]4CN3C(=O)N4OS(=O)(=O)O)o2)CC1 [Compound 775, (2S,5R)-2-(5-(2-(4-aminopiperidin-1-yl)ethyl)-1,3,4-oxadiazol-2-yl)-7-oxo-1,6-diazabicyclo[3.2.1]octan-6-yl hydrogen sulfate]",more active than Avibactam,

# From US8940897B2, “1,3,4-oxadiazole and 1,3,4-thiadiazole β-lactamase inhibitors” (priority 2012, dated 2015)
